Earlier results, collected in patent publication US20170332633A1, “DOUBLE SALT IONIC LIQUIDS OF HERBICIDES” (THE BOARD OF TRUSTEES OF THE UNIVERSITY OF ALABAMA, priority 2014, published 2017).

Test system: rat

Structure (SMILES) | rat LD50 [mg/kg]
O=C(O)COc1ccc(Cl)cc1Cl [Example 2.4-D, 2,4-dichlorophenoxyacetic acid] | 639 to 764
COc1c(Cl)ccc(Cl)c1C(=O)O [Dicamba, 3,6-dichloro-2-methoxy benzoic acid] | 1039
